Test results reported in US7888395B2, “STAT3 phosphorylation inhibitor and notch1 expression inhibitor” (Meiji Dairies Corporation, priority 2004, dated 2011).

Experiments:
Notch1 [1] = assay: Notch1 expression in cell strain transformed with Ras; format: cell-based, mouse; details: fibroblast transformed with Ras, 10^−6M
Procedure: (§1) The fibroblast transformed with Ras was treated with 2,4,4-trimethyl-3-(15-hydroxypentadecyl)-2-cyclohexen-1-one (10^−6M) and then compared with the untreated cell. Non-transformed cell strains (treated and untreated) were used as controls.

[2] = system: 3T3 Ras transformed fibroblast; assay: In vitro test, neoplastic foci of 3T3 Ras transformed fibroblast; format: cell-based, mouse; details: 10^−6M, compared with untreated cell, FIG. 3
Procedure: When 3T3 Ras transformed fibroblast was cultured in 10% FBS-containing DMEM medium for 3 days, appearance of “foci” is observed as compared with non-transformed cell strains.
Each of 3T3 Ras transformed fibroblast (derived from mouse) or 3T3 fibroblast (derived from mouse) each is cultured at a concentration of 10,000 cell/ml in 10% FBS-containing DMEM medium for 1 day.
Thereafter, each cell is treated with 10^−5M 2,4,4-trimethyl-3-(15-hydroxypentadecyl)-2-cyclohexen-1-one for 6 days.
3T3 Ras transformed fibroblast or 3T3 fibroblast is cultured at a concentration of 10,000 cell/ml in 5% FBS-containing DMEM medium which contains 0.625% agar (DIFCO) and 10^−6 M 2,4,4-trimethyl-3-(15-hydroxypentadecyl)-2-cyclohexen-1-one.
as §1

[3] = system: 3T3 Ras transformed fibroblast; assay: Ex vivo test, tumor size after injection of 3T3 Ras transformed fibroblast into Swiss Nu/Nu mouse; format: in vivo; details: cells pretreated 3 days, intraperitoneal on days 2, 8 and 15, FIG. 4
Procedure: In a test tube for 3 days, 3T3 Ras transformed fibroblast (derived from mouse) or 3T3 fibroblast (derived from mouse) was treated with applying 50 μl (10^−3 M) of 2,4,4-trimethyl-3-(15-hydroxypentadecyl)-2-cyclohexen-1-one. The cell ([…]) was again suspended in 400 μl of DMEM medium and 200 μl thereof was injected into 7 weeks-old Swiss Nu/Nu mouse (male) symmetrically. On second, eighth, and fifteenth days after injection, 2,4,4-trimethyl-3-(15-hydroxypentadecyl)-2-cyclohexen-1-one was intraperitoneally administrated into mouse.

HES5 = assay: Gene expression test, RT-PCR analysis of HES5; format: cell-based, mouse, rat; details: treated relative to untreated cells, normalized toward GAPDH
Procedure: (§2) In ethanol, 2,4,4-trimethyl-3-(15-hydroxypentadecyl)-2-cyclohexen-1-one synthesized by the method described in JP-A-2000-297034 was dissolved to give a concentration of 10^−2 M. The solution was added to a culture solution in a desirable concentration to be final dilution of 1 μl/ml. At different times and different periods in cell culture, 2,4,4-trimethyl-3-(15-hydroxypentadecyl)-2-cyclohexen-1-one was added. […] Each experiment was repeated at least three times.
(§3) Protocol was adapted from Grandbarbe et al., Development (2003) 130, 1393-1402. When briefly explained, as described in Tropepe et al., Dev. Biol. (1999) 208, 166-188, primary neurospheres were prepared from telencephalon of wild-type embryo (E14.5) and were maintained as secondary neurospheres by continuous subculture in a serum-free medium (Reynolds and Weiss, Science (1992) 255, […]) containing 10 ng/ml EGF. After propagation for different times, 50 to 100 neurospheres were inoculated to a polyornithine (Sigma)-coated cover slip in the presence of 2 ng/ml EGF and 0.5% FBS and differentiated. […]
(§4) Typical cycle conditions were 94° C. for 30 seconds, 55° C. for 30 seconds, and 72° C. for 30 seconds except for HES-5 whose program was 94° C. for 30 seconds, 63° C. for 30 seconds, and 72° C. for 2 minutes. […] The relative amount of mRNA was quantitatively determined in accordance with BabyImager analysis and NIHimage 1.36.

STAT3 = assay: Western Blot of STAT3 phosphorylation; format: cell-based; details: 10^−8 M solution, compared with control without compound, FIG. 2
Procedure: After preparation of 2,4,4-trimethyl-3-(15-hydroxypentadecyl)-2-cyclohexen-1-one solution (10^−8 M), Western Blot was performed using STAT3 and phosphorylated STAT3 antibody (STAT3 antibody derived from rabbit, manufactured by Cell Signaling) to confirm the action of 2,4,4-trimethyl-3-(15-hydroxypentadecyl)-2-cyclohexen-1-one on STAT3 phosphorylation.

[4] = system: Notch receptors (Notch 2 to 4); assay: Gene expression test, RT-PCR analysis of the other Notch receptors; format: cell-based, mouse, rat; details: treated relative to untreated cells, normalized toward GAPDH
Procedure: as §2, §3, §4

Notch1 [5] = assay: Gene expression test, RT-PCR analysis of Notch1; format: cell-based, mouse, rat; details: treated relative to untreated cells, normalized toward GAPDH
Procedure: as §2, §3, §4

CC1=C(CCCCCCCCCCCCCCCO)C(C)(C)CCC1=O [2,4,4-trimethyl-3-(15-hydroxypentadecyl)-2-cyclohexen-1-one]
Notch1 expression (Notch1 [1]): decrease | neoplastic foci of the cell strain transformed with Ras [2]: reduced | tumor size [3]: reduced | levels of mRNA of HES5 (HES5): always decreased | STAT3 phosphorylation (band of P-STAT3) (STAT3): suppressed | expression levels of the other Notch receptors (Notch 2 to 4) [4]: not changed | levels of mRNA of Notch1 (Notch1 [5]): always decreased
